In experiment [1] the test system is p53. Description: Western blot of HCT116 cells, p53 level. It counts as cell-based, human. To be noted: Western blot (FIG. 2, FIG. 3).
The target in experiment [2] is T1, bromodomain-containing protein 4 (BRD4) (Homo sapiens, UniProt O60885).
T1 construct: VCaP cells were chased from ATCC and cultured in Dulbecco's Modified Eagle's Medium; host or cells: VCaP
Description: BRD4 Western blot (degradation). It counts as cell-based. To be noted: at 1 μM; VCaP cells, 16 h. The procedure: The following biological assays were performed to evaluate the protein degradation in various cell types using representative compounds disclosed. The degradation of the following proteins were evaluated: bromodomain-containing protein 4 (BRD4), androgen receptor (AR), c-Myc, c-Jun N-terminal kinases (JNK), and enhancer of zeste homolog 2 (EZH2).
VCaP cells were chased from ATCC and cultured in Dulbecco's Modified Eagle's Medium (ATCC), supplemented with 10% FBS (ATCC) and Penicillin/Streptomycin (Life Technologies). DMSO control and compound treatments (0.03 μM to 1 μM) were performed in 12-well plates for 16 h. cells were harvested, and lysed in RIPA buffer (50 mM Tris pH8, 150 mM NaCl, 1% Tx-100, 0.1% SDS, 0.5% sodium deoxycholate) supplemented with protease and phosphatase inhibitors. Lysates were clarified at 16,000 g for 10 minutes, and protein concentration was determined. Equal amount of protein (20 μg) was subjected to SDS-PAGE analysis and followed by immunoblotting according to standard protocols. The antibodies used were BRD4 (Cell signaling #13440), and Actin (Sigma #5441). Detection reagents were Clarity Western ELC substrate (Bio-rad #170-5060).
On the technique in general: Immunoblotting shows a protein as a band on a membrane.

With `COc1cc(C(=O)NCCOCCOCCOCCOCC(=O)N[C@H](C(=O)N2C[C@H](O)C[C@H]2C(=O)NCc2ccc(-c3scnc3C)cc2)C(C)(C)C)ccc1NC(=O)C1NC(CC(C)(C)C)C(C#N)(c2ccc(Cl)cc2F)C1c1cccc(Cl)c1F` (mixture of isomers) [Compound A1895, 3-(3-chloro-2-fluorophenyl)-4-(4-chloro-2-fluorophenyl)-4-cyano-5-(2,2-dimethylpropyl)-N-{4-[(1-{[(2S)-1-[(2S,4R)-4-hydroxy-2-({[4-(4-methyl-1,3-thiazol-5-yl)phenyl]methyl}carbamoyl)pyrrolidin-1-yl]-3,3-dimethyl-1-oxobutan-2-yl]carbamoyl}-2,5,8,11-tetraoxatridecan-13-yl)carbamoyl]-2-methoxyphenyl}pyrrolidine-2-carboxamide], in experiment [1], the p53 level increase entry is recorded as “dose dependent p53 level increase”.

`COc1cc(C(=O)NCCOCCOCCOCCOCC(=O)N[C@H](C(=O)N2C[C@H](O)C[C@H]2C(=O)NCc2ccc(-c3scnc3C)cc2)C(C)(C)C)ccc1NC(=O)[C@@H]1N[C@@H](CC(C)(C)C)[C@](C#N)(c2ccc(Cl)cc2F)[C@H]1c1cccc(Cl)c1F` (single isomer, unassigned) [Compound A1896]: in experiment [1], the p53 level increase result was “dose dependent p53 level increase”.

With `Cc1sc2c(c1C)C(c1ccc(Cl)cc1)=N[C@@H](CC(=O)NCCOCCOCCOCCOCCOCCNC(=O)C1NC(CC(C)(C)C)C(C#N)(c3ccc(Cl)cc3F)C1c1cccc(Cl)c1F)c1nnc(C)n1-2` (stereo partly drawn) [Compound A1283, N-(17-{[3-(3-chloro-2-fluorophenyl)-4-(4-chloro-2-fluorophenyl)-4-cyano-5-(2,2-dimethylpropyl)pyrrolidin-2-yl]formamido}-3,6,9,12,15-pentaoxaheptadecan-1-yl)-2-[(9S)-7-(4-chlorophenyl)-4,5,13-trimethyl-3-thia-1,8,11,12-tetraazatricyclo-[8.3.0.0^2,^6]trideea-2(6),4,7,10,12-pentaen-9-yl]acetamide], the “Degradation activity BRD4” value in experiment [2] was “B (25 to 50% degradation at 1 μM)”.

In the case of `Cc1sc2c(c1C)C(c1ccc(Cl)cc1)=N[C@@H](CC(=O)NCCOCCOCCOCCNC(=O)C1N[C@@H](CC(C)(C)C)[C@](C#N)(c3ccc(Cl)cc3F)[C@H]1c1cccc(Cl)c1F)c1nnc(C)n1-2` (stereo partly drawn) [Compound A1306, N-(2-{2-[2-(2-{[3-(3-chloro-2-fluorophenyl)-4-(4-chloro-2-fluorophenyl)-4-cyano-5-(2,2-dimethylpropyl)pyrrolidin-2-yl]formamido}ethoxy)ethoxy]ethoxy}ethyl)-2-[(9S)-7-(4-chlorophenyl)-4,5,13-trimethyl-3-thia-1,8,11,12-tetraazatricyclo[8.3.0.0^2,^6]trideca-2(6),4,7,10,12-pentaen-9-yl]acetamide], in experiment [2], the “Degradation activity BRD4” value is listed as “B (25 to 50% degradation at 1 μM)”.

Regarding `Cc1sc2c(c1C)C(c1ccc(Cl)cc1)=N[C@@H](CC(=O)NCCOCCOCCOCCOCCNC(=O)C1N[C@@H](CC(C)(C)C)[C@](C#N)(c3ccc(Cl)cc3F)[C@H]1c1cccc(Cl)c1F)c1nnc(C)n1-2` (stereo partly drawn) [Compound A1307, N-(14-{[3-(3-chloro-2-fluorophenyl)-4-(4-chloro-2-fluorophenyl)-4-cyano-5-(2,2-dimethylpropyl)pyrrolidin-2-yl]formamido}-3,6,9,12-tetraoxatetradecan-1-yl)-2-[(9S)-7-(4-chlorophenyl)-4,5,13-trimethyl-3-thia-1,8,11,12-tetraazatricyclo-[8.3.0.0^2,^6]trideca-2(6),4,7,10,12-pentaen-9-yl]acetamide], the “Degradation activity BRD4” value in experiment [2] was “C (larger than 50% degradation at 1 μM)”.

On to `COc1cc(C(=O)NCCOCCOCCOCCNC(=O)C[C@@H]2N=C(c3ccc(Cl)cc3)c3c(sc(C)c3C)-n3c(C)nnc32)ccc1NC(=O)C1N[C@@H](CC(C)(C)C)[C@](C#N)(c2ccc(Cl)cc2F)[C@H]1c1cccc(Cl)c1F` (stereo partly drawn) [Compound A1829, 3-(3-chloro-2-fluorophenyl)-4-(4-chloro-2-fluorophenyl)-N-{4-[(2-{2-[2-(2-{2-[(9S)-7-(4-chlorophenyl)-4,5,13-trimethyl-3-thia-1,8,11,12-tetraazatricyclo[8.3.0.0^2,^6]trideca-2(6),4,7,10,12-pentaen-9-yl]acetamido}ethoxy)ethoxy]ethoxy}ethyl)carbamoyl]-2-methoxyphenyl}-4-cyano-5-(2,2-dimethylpropyl)pyrrolidine-2-carboxamide], for which the “Degradation activity BRD4” value in experiment [2] is listed as “B (25 to 50% degradation at 1 μM)”.

Regarding `COc1cc(C(=O)NCCOCCOCCNC(=O)C[C@@H]2N=C(c3ccc(Cl)cc3)c3c(sc(C)c3C)-n3c(C)nnc32)ccc1NC(=O)C1N[C@@H](CC(C)(C)C)[C@](C#N)(c2ccc(Cl)cc2F)[C@H]1c1cccc(Cl)c1F` (stereo partly drawn) [Compound A1863, 3-(3-chloro-2-fluorophenyl)-4-(4-chloro-2-fluorophenyl)-N-[4-({2-[2-(2-{2-[(9S)-7-(4-chlorophenyl)-4,5,13-trimethyl-3-thia-1,8,11,12-tetraazatricyclo-[8.3.0.0^2,^6]trideca-2(6),4,7,10,12-pentaen-9-yl]acetamido}ethoxy)ethoxy]-ethyl}carbamoyl)-2-methoxyphenyl]-4-cyano-5-(2,2-dimethylpropyl)pyrrolidine-2-carboxamide], in experiment [2], the “Degradation activity BRD4” value is reported as “B (25 to 50% degradation at 1 μM)”.

With `COc1cc(C(=O)NCCOCCOCCNC(=O)C[C@@H]2N=C(c3ccc(Cl)cc3)c3c(sc(C)c3C)-n3c(C)nnc32)ccc1NC(=O)[C@H]1N[C@H](CC(C)(C)C)[C@@](C#N)(c2ccc(Cl)cc2F)[C@@H]1c1cccc(Cl)c1F` [Compound A1865, (2S,3R,4S,5R)-3-(3-chloro-2-fluorophenyl)-4-(4-chloro-2-fluorophenyl)-N-[4-({2-[2-(2-{2-[(9S)-7-(4-chlorophenyl)-4,5,13-trimethyl-3-thia-1,8,11,12-tetraazatricyclo-[8.3.0.0^2,^6]trideca-2(6),4,7,10,12-pentaen-9-yl]acetamido}ethoxy)ethoxy]ethyl}-carbamoyl)-2-methoxyphenyl]-4-cyano-5-(2,2-dimethylpropyl)pyrrolidine-2-carboxamide], in experiment [2], the “Degradation activity BRD4” value is recorded as “A (0 to 25% degradation at 1 μM)”.

On to `COc1cc(C(=O)NCCOCCOCCOCCNC(=O)C[C@@H]2N=C(c3ccc(Cl)cc3)c3c(sc(C)c3C)-n3c(C)nnc32)ccc1NC(=O)[C@@H]1N[C@@H](CC(C)(C)C)[C@](C#N)(c2ccc(Cl)cc2F)[C@H]1c1cccc(Cl)c1F` [Compound A1874, (2R,3S,4R,5S)-3-(3-chloro-2-fluorophenyl)-4-(4-chloro-2-fluorophenyl)-N-{4-[(2-{2-[2-(2-{2-[(9S)-7-(4-chlorophenyl)-4,5,13-trimethyl-3-thia-1,8,11,12-tetraazatricyclo[8.3.0.0^2,^6]trideca-2(6),4,7,10,12-pentaen-9-yl]acetamido}ethoxy)ethoxy]ethoxy}ethyl)carbamoyl]-2-methoxyphenyl}-4-cyano-5-(2,2-dimethylpropyl)pyrrolidine-2-carboxamide], for which, in experiment [2], the “Degradation activity BRD4” value was “B (25 to 50% degradation at 1 μM)”.

Regarding `COc1cc(C(=O)NCCOCCOCCOCCNC(=O)C[C@@H]2N=C(c3ccc(Cl)cc3)c3c(sc(C)c3C)-n3c(C)nnc32)ccc1NC(=O)[C@H]1N[C@H](CC(C)(C)C)[C@@](C#N)(c2ccc(Cl)cc2F)[C@@H]1c1cccc(Cl)c1F` [Compound A1875, (2S,3R,4S,5R)-3-(3-chloro-2-fluorophenyl)-4-(4-chloro-2-fluorophenyl)-N-{4-[(2-{2-[2-(2-{2-[(9S)-7-(4-chlorophenyl)-4,5,13-trimethyl-3-thia-1,8,11,12-tetraazatricyclo[8.3.0.0^2,^6]trideca-2(6),4,7,10,12-pentaen-9-yl]acetamido}ethoxy)ethoxy]ethoxy}ethyl)carbamoyl]-2-methoxyphenyl}-4-cyano-5-(2,2-dimethylpropyl)pyrrolidine-2-carboxamide], the “Degradation activity BRD4” value in experiment [2] is “A (0 to 25% degradation at 1 μM)”.

In the case of `COc1cc(C(=O)NCCOCCOCCOCCOCCNC(=O)C[C@@H]2N=C(c3ccc(Cl)cc3)c3c(sc(C)c3C)-n3c(C)nnc32)ccc1NC(=O)C1N[C@@H](CC(C)(C)C)[C@](C#N)(c2ccc(Cl)cc2F)[C@H]1c1cccc(Cl)c1F` (stereo partly drawn) [Compound A1876, 3-(3-chloro-2-fluorophenyl)-4-(4-chloro-2-fluorophenyl)-N-{4-[(14-{2-[(9S)-7-(4-chlorophenyl)-4,5,13-trimethyl-3-thia-1,8,11,12-tetraazatricyclo[8.3.0.0^2,^6]-trideca-2(6),4,7,10,12-pentaen-9-yl]acetamido}-3,6,9,12-tetraoxatetradecan-1-yl)carbamoyl]-2-methoxyphenyl}-4-cyano-5-(2,2-dimethylpropyl)pyrrolidine-2-carboxamide], the “Degradation activity BRD4” value in experiment [2] is reported as “C (larger than 50% degradation at 1 μM)”.

Regarding `COc1cc(C(=O)NCCOCCNC(=O)C[C@@H]2N=C(c3ccc(Cl)cc3)c3c(sc(C)c3C)-n3c(C)nnc32)ccc1NC(=O)C1N[C@@H](CC(C)(C)C)[C@](C#N)(c2ccc(Cl)cc2F)[C@H]1c1cccc(Cl)c1F` (stereo partly drawn) [Compound A1890, 3-(3-chloro-2-fluorophenyl)-4-(4-chloro-2-fluorophenyl)-N-(4-{[2-(2-{2-[(9S)-7-(4-chlorophenyl)-4,5,13-trimethyl-3-thia-1,8,11,12-tetraazatricyclo[8.3.0.0^2,^6]-trideca-2(6),4,7,10,12-pentaen-9-yl]acetamido}ethoxy)ethyl]carbamoyl}-2-methoxyphenyl)-4-cyano-5-(2,2-dimethylpropyl)pyrrolidine-2-carboxamide], in experiment [2], the “Degradation activity BRD4” value is “C (larger than 50% degradation at 1 μM)”.
